Consider one compound from article PMC11239830, “Synthetic macrolides overcoming MLSBK-resistant pathogens” (Cell Discovery, 2024).

A short description of the data set: In vivo pharmacokinetic study. Details: species or system SD rats. To be noted: SD (Sprague-Dawley), rat, iv, plasma. Here is the method:
The SD rats were fasted overnight and dosed i.v. at a dose of 5 mg/kg in a solution of DMSO/PEG 400/water (5%/24%/71%). The whole blood was collected into tubes containing sodium heparin at 0.083 h, 0.25 h, 0.5 h, 1 h, 2 h, 4 h, 8 h and 24 h after dosing. After centrifugation of 6000 rpm for 10 min at 4 °C, plasma samples were transferred into 1.5 mL tubes and stored at –20 °C. Prior to analysis, the samples were thawed on ice. An amount of 50 μL of each plasma sample was added to a mixture of 50 μL of propranolol (300 ng/mL) and 100 μL of acetonitrile and centrifuged at 12,000 rpm at 4 °C for 10 min. The supernatant was diluted and analyzed by LC-MS/MS. The liquid chromatography was conducted on a Thermo Scientific Q Exactive HF-X (ThermoFisher Scientific, USA) instrument, employing an ACQUITY UPLC BEH C18 Column with dimensions of 130 Å, 1.7 µm, 2.1 mm × 100 mm. The liquid phase method employed gradient elution with mobile phases consisting of acetonitrile and an 0.1% aqueous formic acid solution. Mass spectrometry was conducted in positive ion mode. The quantification of drug concentration in plasma samples was performed using the internal standard method, and the obtained pharmacokinetic parameters were calculated using Phoenix WinNonlin software.

By Cmax is commonly meant the highest concentration seen after dosing. What is called MRT is a mean duration of stay, worked out from the concentration-time curve. In general, Tmax refers to the time at which the peak concentration occurs. The term half-life denotes how long it takes for the measured level to halve. Higher therefore signals slow loss. The AUC(0-inf) is the area under the concentration-time curve extrapolated to infinity. As usually defined, the clearance is the rate of elimination divided by the concentration. A higher clearance goes with a high capacity for elimination. For the compound `CC[C@H]1OC(=O)[C@H](C)[C@@H](OC(=O)NCCCCCCC#Cc2ccc3c(=O)c(C(=O)O)cn(C)c3c2)[C@H](C)[C@@H](O[C@@H]2O[C@H](C)C[C@H](N(C)C)[C@H]2O)[C@](C)(OC)C[C@@H](C)C(=O)[C@H](C)[C@H]2NC(=O)O[C@@]21C` [MCX-219], for the setting “male SD rats, i.v. 5 mg/kg”, the Cmax amounted to 15000 ± 2810 ng/mL, the MRT is 1.13 ± 0.0139 h, the Tmax came out at 4.8 min and the half-life was 3.92 ± 0.117 h. The AUC(0-inf) (male SD rats, i.v. 5 mg/kg, mean ± SD, n 3) came out at 7090 ± 1360 ng·h/mL. Moreover, under “male SD rats, i.v. 5 mg/kg, read-out: AUC0-24”, the AUC(0-t) came to 7080 ± 1360 ng·h/mL. Where the note is “male, 5 mg/kg”, the clearance is 12.2 mL/min/kg.
